Experimental findings from ChEMBL document CHEMBL1140953, “Anthracene based compounds as new L-type Ca2+ channel blockers: design, synthesis, and full biological profile” (J Med Chem, 2009) are described below.

The target in data set [1] is Voltage-dependent L-type calcium channel subunit alpha-1C (Mus musculus, UniProt Q01815). Nature of the data set: Inhibition of mouse brain L-type Cav1.2 channel by radioligand binding assay.
Data set [2] can be described thus: Displacement of (+)-[3H]isradipine from L-type calcium channel in rabbit skeletal muscle cells. Also noted: species or system Oryctolagus cuniculus.
Data set [3] is described as follows: (§1) Displacement of (-)-[3H]devapamil from L-type calcium channel in rabbit skeletal muscle cells. Also noted: species or system Oryctolagus cuniculus.
Data set [4] concerns the target T1, Voltage-gated L-type calcium channel (Rattus norvegicus, UniProt P22002+Q02485+P27732). Description: Inhibition of L-type calcium channel in Sprague-Dawley rat caudal artery smooth muscle cells at 15 uM by whole cell patch clamp method at 2 Hz.
Data set [5] concerns the target T1, Voltage-gated L-type calcium channel. Nature of the data set: Inhibition of L-type calcium channel in Sprague-Dawley rat caudal artery smooth muscle cells assessed as decrease in amplitude at 15 uM by whole cell patch clamp method. As to conditions: TDE = time-dependent effect.
For data set [6] the target is unchanged. Description: Inhibition of L-type calcium channel in Sprague-Dawley rat caudal artery smooth muscle cells assessed as inhibition of peak inward current at 15 uM by whole cell patch clamp method at -20 to 40 mV voltage.
The target is the same in data set [7]. Nature of the data set: Inhibition of L-type calcium channel in Sprague-Dawley rat caudal artery smooth muscle cells by whole cell patch clamp method.
The species named for data set [8] is Rattus norvegicus. Description: Vasorelaxant activity in Sprague-Dawley rat caudal artery ring assessed as reduction of caffeine-induced muscle contractions at 50 uM in Ca2+-free physiological salt solution. The format is functional, tissue-based.
A short description of data set [9]: Vasorelaxant activity in Sprague-Dawley rat caudal artery ring assessed as reduction of KCl-induced muscle contractions at 50 uM relative to control. On the set-up: scale not given: the % may be the effect or the level left. The format is functional.
For data set [10], the species on record is Rattus norvegicus. Nature of the data set: Vasorelaxant activity in Sprague-Dawley rat caudal artery ring assessed as reduction of phenylephrine-induced muscle contractions at 50 uM in Ca2+-free physiological salt solution. It is filed as functional, tissue-based.
Data set [11] addresses T1, Voltage-gated L-type calcium channel. Description: Inhibition of L-type calcium channel in Sprague-Dawley rat caudal artery smooth muscle cells at 15 uM by whole cell patch clamp method at -50 mV voltage.
For data set [12] the target is unchanged. Description: Inhibition of L-type calcium channel in Sprague-Dawley rat caudal artery smooth muscle cells at 15 uM by whole cell patch clamp method at 4 Hz.
For data set [13], the species on record is Rattus norvegicus. Nature of the data set: Vasorelaxant activity in Sprague-Dawley rat caudal artery ring assessed as reduction of caffeine-induced muscle contractions at 50 uM. It is filed as functional, tissue-based.
For another data set, the species on record is Oryctolagus cuniculus. The description is as §1. The following applies: concentration not given here.
The nature of data set [14]: Displacement of (-)-[3H]devapamil from L-type calcium channel in rabbit smooth skeletal cells relative to verapamil.

The source made the active and inactive calls. The calls are words filed in the database; no cut-off is given here.

Voltage-dependent L-type calcium channel subunit alpha-1C, sequence (Q01815 whole entry): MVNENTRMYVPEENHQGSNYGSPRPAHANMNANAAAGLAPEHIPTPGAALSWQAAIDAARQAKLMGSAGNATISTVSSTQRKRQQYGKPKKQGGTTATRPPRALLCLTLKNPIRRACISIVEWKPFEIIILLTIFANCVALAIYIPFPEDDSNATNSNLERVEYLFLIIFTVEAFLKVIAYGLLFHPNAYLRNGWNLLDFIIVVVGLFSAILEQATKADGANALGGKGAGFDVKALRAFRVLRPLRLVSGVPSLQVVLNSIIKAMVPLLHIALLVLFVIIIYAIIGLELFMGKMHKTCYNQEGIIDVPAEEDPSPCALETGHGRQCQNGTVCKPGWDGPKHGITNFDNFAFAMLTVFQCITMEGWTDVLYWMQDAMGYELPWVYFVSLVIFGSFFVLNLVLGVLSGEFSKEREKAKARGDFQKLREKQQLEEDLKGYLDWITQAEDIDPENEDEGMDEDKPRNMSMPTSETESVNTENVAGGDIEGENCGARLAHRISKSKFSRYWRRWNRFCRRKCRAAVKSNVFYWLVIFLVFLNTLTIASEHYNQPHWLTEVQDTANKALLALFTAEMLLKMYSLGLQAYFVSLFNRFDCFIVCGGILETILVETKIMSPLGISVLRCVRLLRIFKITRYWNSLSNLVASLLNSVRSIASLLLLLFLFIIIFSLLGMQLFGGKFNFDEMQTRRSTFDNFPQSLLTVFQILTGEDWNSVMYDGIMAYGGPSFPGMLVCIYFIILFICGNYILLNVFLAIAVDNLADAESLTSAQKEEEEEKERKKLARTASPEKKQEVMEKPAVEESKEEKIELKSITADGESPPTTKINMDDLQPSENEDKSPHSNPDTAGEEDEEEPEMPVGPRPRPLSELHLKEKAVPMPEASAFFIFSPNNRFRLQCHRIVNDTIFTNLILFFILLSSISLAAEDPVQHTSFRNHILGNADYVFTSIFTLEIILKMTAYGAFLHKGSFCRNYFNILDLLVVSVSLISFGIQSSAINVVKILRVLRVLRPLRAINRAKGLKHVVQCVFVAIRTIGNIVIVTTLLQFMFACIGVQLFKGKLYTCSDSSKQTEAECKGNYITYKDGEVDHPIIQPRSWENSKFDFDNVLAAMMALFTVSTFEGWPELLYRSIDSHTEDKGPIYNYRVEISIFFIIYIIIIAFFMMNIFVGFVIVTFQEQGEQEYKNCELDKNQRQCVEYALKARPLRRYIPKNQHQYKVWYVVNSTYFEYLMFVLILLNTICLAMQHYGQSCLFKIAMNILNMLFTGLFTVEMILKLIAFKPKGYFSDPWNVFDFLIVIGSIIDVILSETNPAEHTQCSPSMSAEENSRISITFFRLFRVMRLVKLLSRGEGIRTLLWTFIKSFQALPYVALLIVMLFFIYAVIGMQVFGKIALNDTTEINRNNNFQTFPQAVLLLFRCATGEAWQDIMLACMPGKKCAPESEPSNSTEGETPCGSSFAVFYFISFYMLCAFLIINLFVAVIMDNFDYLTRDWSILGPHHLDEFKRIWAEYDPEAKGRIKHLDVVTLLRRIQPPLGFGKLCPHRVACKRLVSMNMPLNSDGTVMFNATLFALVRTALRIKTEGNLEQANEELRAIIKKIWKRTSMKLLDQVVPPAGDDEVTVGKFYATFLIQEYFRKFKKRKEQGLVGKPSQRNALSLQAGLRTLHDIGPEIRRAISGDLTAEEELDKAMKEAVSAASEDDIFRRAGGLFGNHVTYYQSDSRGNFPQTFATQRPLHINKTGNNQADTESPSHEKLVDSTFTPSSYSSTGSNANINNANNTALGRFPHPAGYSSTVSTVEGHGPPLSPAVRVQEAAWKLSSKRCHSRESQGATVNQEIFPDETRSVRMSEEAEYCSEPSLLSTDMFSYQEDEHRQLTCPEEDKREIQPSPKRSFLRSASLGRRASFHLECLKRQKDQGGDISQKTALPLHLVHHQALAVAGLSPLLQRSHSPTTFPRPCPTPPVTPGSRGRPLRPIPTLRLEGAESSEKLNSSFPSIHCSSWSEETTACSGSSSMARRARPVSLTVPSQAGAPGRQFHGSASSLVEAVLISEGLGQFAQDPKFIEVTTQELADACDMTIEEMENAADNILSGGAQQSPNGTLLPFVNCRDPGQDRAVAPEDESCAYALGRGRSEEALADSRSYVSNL

Turning to `O=C1NC(=O)C2C3c4ccccc4C(c4ccc(Cl)cc43)C12` (configuration not stated), the IC50 amounted to 19.4 µM in [1], 6.3 µM in [2], 5.6 µM in [3] and 16.5 µM in data set [7]. In addition, the Activity entry is listed as “Active” in data set [4]; “tde” in [5]; “Active” in data set [6]; “Dose-dependent effect” in data set [7] (rat); 100% in data set [9]; “Active” in data set [11]. Moreover, in data set [12], the outcome was Active. In addition, the outcome in the data set filed under Rattus norvegicus [8] and in the data set listed under Rattus norvegicus [10] was inactive.
Take `O=C1NC(=O)C2C1C1c3ccccc3C2([N+](=O)[O-])c2ccccc21` (configuration not stated): the outcome in the data set filed under Rattus norvegicus [13] and in the data set listed under Rattus norvegicus [10] was Active.
As to `O=CC12c3ccccc3C(c3ccccc31)C1C(=O)NC(=O)C12` (configuration not stated), the result in the data set filed under Rattus norvegicus [13] and in the data set listed under Rattus norvegicus [10] was Active.
Regarding `O=C1NC(=O)C2C1C1c3ccccc3C2(Cl)c2ccccc21` (configuration not stated), the outcome in the data set listed under Rattus norvegicus [13] and in the data set filed under Rattus norvegicus [10] was Active.
In the case of `O=C1NC(=O)C2C1C1c3ccccc3C2(CO)c2ccccc21` (configuration not stated), the result in the data set filed under Rattus norvegicus [13] and in the data set listed under Rattus norvegicus [10] was Active.
As for `N#CC12c3ccccc3C(c3ccccc31)C1C(=O)NC(=O)C12` (configuration not stated), the result in the data set filed under Rattus norvegicus [13] and in the data set filed under Rattus norvegicus [10] was Active.
`CC12c3ccccc3C(c3ccccc31)C1C(=O)NC(=O)C12` (configuration not stated): the result in the data set filed under Rattus norvegicus [13] and in the data set listed under Rattus norvegicus [10] was Active.
For `COc1ccc(CCN(C)CCCC(C#N)(c2ccc(OC)c(OC)c2)C(C)C)cc1OC` (configuration not stated) [VERAPAMIL], the inhibition in the data set filed under Oryctolagus cuniculus stood at 100%. In [14], the IC50 was found to be 60.2 nM.
In the case of `O=C1NC(=O)C2C3c4ccccc4C(c4ccccc43)C12` (configuration not stated), the result in the data set filed under Rattus norvegicus [13] and in the data set filed under Rattus norvegicus [10] was Active.
`Cc1ccc2c(c1)C1c3ccccc3C2C2C(=O)NC(=O)C12` (configuration not stated): the outcome in the data set filed under Rattus norvegicus [13] and in the data set filed under Rattus norvegicus [10] was Active. Besides, in data set [9], the Activity was determined as 90%.
Consider `C#CCN1C(=O)C2C3c4ccccc4C(c4ccccc43)C2C1=O` (configuration not stated), for which the outcome in the data set listed under Rattus norvegicus [13] and in the data set listed under Rattus norvegicus [10] was Active.
For the molecule `O=C1NC(=O)C2C3c4ccccc4C(c4cccc(Cl)c43)C12` (configuration not stated), the outcome in the data set listed under Rattus norvegicus [13] and in the data set listed under Rattus norvegicus [10] was Active. The Activity in data set [9] is 90%.
